Source: PMC12028158, “Synthesis and In Vitro Evaluation of the Anticancer Effect of Novel Phosphonium Vindoline Derivatives” (International Journal of Molecular Sciences, 2025)

Assays:
Type in all cases: cell-based
MOLT-4 = experiment: NCI60 one-dose screen; conditions: Homo sapiens, MOLT-4, read-out: Growth percent
RPMI-8226 = experiment: NCI60 one-dose screen; conditions: Homo sapiens, RPMI-8226, read-out: Growth percent
HOP-92 = experiment: NCI60 one-dose screen; conditions: Homo sapiens, HOP-92, read-out: Growth percent
NCI-H522 = experiment: NCI60 one-dose screen; conditions: Homo sapiens, NCI-H522, read-out: Growth percent
HCC-2998 = experiment: NCI60 one-dose screen; conditions: Homo sapiens, HCC 2998, read-out: Growth percent
HCT-15 = experiment: NCI60 one-dose screen; conditions: Homo sapiens, HCT-15, read-out: Growth percent
KM12 = experiment: NCI60 one-dose screen; conditions: Homo sapiens, KM12, read-out: Growth percent
SW-620 = experiment: NCI60 one-dose screen; conditions: Homo sapiens, SW-620, read-out: Growth percent
SF-295 = experiment: NCI60 one-dose screen; conditions: Homo sapiens, SF-295, read-out: Growth percent
SNB-75 = experiment: NCI60 one-dose screen; conditions: Homo sapiens, SNB-75, read-out: Growth percent
SK-MEL-28 = experiment: NCI60 one-dose screen; conditions: Homo sapiens, SK-MEL-28, read-out: Growth percent
UACC-257 = experiment: NCI60 one-dose screen; conditions: Homo sapiens, UACC-257, read-out: Growth percent
OVCAR-3 = experiment: NCI60 one-dose screen; conditions: Homo sapiens, OVCAR-3, read-out: Growth percent
OVCAR-4 = experiment: NCI60 one-dose screen; conditions: Homo sapiens, OVCAR-4, read-out: Growth percent
OVCAR-8 [1] = experiment: NCI60 one-dose screen; conditions: Homo sapiens, OVCAR-8, read-out: Growth percent
SK-OV-3 = experiment: NCI60 one-dose screen; conditions: Homo sapiens, SK-OV-3, read-out: Growth percent
786-0 [2] = experiment: NCI60 one-dose screen; conditions: Homo sapiens, 786-0, read-out: Growth percent
A498 = experiment: NCI60 one-dose screen; conditions: Homo sapiens, A498, read-out: Growth percent
CAKI-1 = experiment: NCI60 one-dose screen; conditions: Homo sapiens, CAKI-1, read-out: Growth percent
RXF 393 = experiment: NCI60 one-dose screen; conditions: Homo sapiens, RXF 393, read-out: Growth percent
TK-10 = experiment: NCI60 one-dose screen; conditions: Homo sapiens, TK-10, read-out: Growth percent
PC-3 [3] = experiment: NCI60 one-dose screen; conditions: Homo sapiens, PC-3, read-out: Growth percent
MDA-MB-231/ATCC = experiment: NCI60 one-dose screen; conditions: Homo sapiens, MDA-MB-231, read-out: Growth percent
BT-549 [4] = experiment: NCI60 one-dose screen; conditions: Homo sapiens, BT-549, read-out: Growth percent
T-47D = experiment: NCI60 one-dose screen; conditions: Homo sapiens, T47D, read-out: Growth percent
MDA-MB-468 = experiment: NCI60 one-dose screen; conditions: Homo sapiens, MDA-MB-468, read-out: Growth percent
NCI-H322M = experiment: NCI60 five-dose screen; conditions: Homo sapiens
HT29 = experiment: NCI60 five-dose screen; conditions: Homo sapiens, HT-29
SF-539 = experiment: NCI60 five-dose screen; conditions: Homo sapiens, SF-539
SNB-19 = experiment: NCI60 five-dose screen; conditions: Homo sapiens, SNB-19
LOX IMVI = experiment: NCI60 five-dose screen; conditions: Homo sapiens
M14 = experiment: NCI60 five-dose screen; conditions: Homo sapiens, M14
OVCAR-5 = experiment: NCI60 five-dose screen; conditions: Homo sapiens, OVCAR-5
OVCAR-8 [5] = experiment: NCI60 five-dose screen; conditions: Homo sapiens, OVCAR-8
NCI/ADR-RES = experiment: NCI60 five-dose screen; conditions: Homo sapiens
786-0 [6] = experiment: NCI60 five-dose screen; conditions: Homo sapiens, 786-0
PC-3 [7] = experiment: NCI60 five-dose screen; conditions: Homo sapiens, PC-3
BT-549 [8] = experiment: NCI60 five-dose screen; conditions: Homo sapiens, BT-549
[9] = tested on: Non-small Cell Lung Cancer panel; experiment: NCI60 five-dose screen, panel mean; conditions: Homo sapiens, read-out: GI50 Mean
Colon Cancer panel = experiment: NCI60 five-dose screen, panel mean; conditions: Homo sapiens, read-out: GI50 Mean
Melanoma panel = experiment: NCI60 five-dose screen, panel mean; conditions: Homo sapiens, read-out: GI50 Mean
Renal Cancer panel = experiment: NCI60 five-dose screen, panel mean; conditions: Homo sapiens, read-out: GI50 Mean
SR = experiment: NCI60 one-dose screen; conditions: Homo sapiens, read-out: Growth percent

## CCC12C=CCN3CC[C@@]4(c5ccc(OC)cc5N(C)[C@H]4[C@@](O)(C(=O)OC)[C@@H]1OC(C)=O)[C@@H]32 (some centres unmarked) [compound 2, vindoline]
MOLT-4
  activity at 10 µM: 103%
RPMI-8226
  activity at 10 µM: 101%
HOP-92
  activity at 10 µM: 84.2%
NCI-H522
  activity at 10 µM: 88.5%
HCC-2998
  activity at 10 µM: 118%
HCT-15
  activity at 10 µM: 99%
KM12
  activity at 10 µM: 102%
SW-620
  activity at 10 µM: 104%
SF-295
  activity at 10 µM: 99.5%
SNB-75
  activity at 10 µM: 73.1%
SK-MEL-28
  activity at 10 µM: 106%
UACC-257
  activity at 10 µM: 98.7%
OVCAR-3
  activity at 10 µM: 112%
OVCAR-4
  activity at 10 µM: 98.8%
OVCAR-8 [1]
  activity at 10 µM: 99.8%
SK-OV-3
  activity at 10 µM: 108%
786-0 [2]
  activity at 10 µM: 104%
A498
  activity at 10 µM: 99.6%
CAKI-1
  activity at 10 µM: 97.5%
RXF 393
  activity at 10 µM: 104%
TK-10
  activity at 10 µM: 92.1%
PC-3 [3]
  activity at 10 µM: 88.3%
MDA-MB-231/ATCC
  activity at 10 µM: 97.7%
BT-549 [4]
  activity at 10 µM: 114%
T-47D
  activity at 10 µM: 95.7%
MDA-MB-468
  activity at 10 µM: 102%

## CC[C@]12C=CCN3CC[C@@]4(c5ccc(OC)cc5N(C)[C@H]4[C@@](O)(C(=O)OC)[C@@H]1OC(=O)CCCC[P+](c1ccccc1)(c1ccccc1)c1ccccc1)[C@@H]32 [compound 4, reference compound]
NCI-H322M
  GI50: 3 µM
HT29
  GI50: 0.404 µM
SF-539
  GI50: 1.3 µM
SNB-19
  GI50: 0.397 µM
LOX IMVI
  GI50: 1.17 µM
M14
  GI50: 1.79 µM
OVCAR-5
  GI50: 1.82 µM
OVCAR-8 [5]
  GI50: 1.74 µM
NCI/ADR-RES
  GI50: > 100 µM
786-0 [6]
  GI50: 2.9 µM
PC-3 [7]
  GI50: 0.369 µM
BT-549 [8]
  GI50: 0.583 µM
[9]
  GI50: 1.44 µM
Colon Cancer panel
  GI50: 3.19 µM
Melanoma panel
  GI50: 0.75 µM
Renal Cancer panel
  GI50: 4.87 µM
MOLT-4
  activity at 10 µM: 5.66%
RPMI-8226
  activity at 10 µM: 15.4%
SR
  activity at 10 µM: 17.9%
HOP-92
  activity at 10 µM: -30%
NCI-H522
  activity at 10 µM: -5.5%
HCC-2998
  activity at 10 µM: 15.9%
HCT-15
  activity at 10 µM: 99.3%
KM12
  activity at 10 µM: 3.15%
SW-620
  activity at 10 µM: 29.4%
SF-295
  activity at 10 µM: 58.1%
SNB-75
  activity at 10 µM: -12.8%
SK-MEL-28
  activity at 10 µM: 12.5%
UACC-257
  activity at 10 µM: 2.15%
OVCAR-3
  activity at 10 µM: -0.29%
OVCAR-4
  activity at 10 µM: 5.22%
OVCAR-8 [1]
  activity at 10 µM: 18.6%
SK-OV-3
  activity at 10 µM: -2.96%
786-0 [2]
  activity at 10 µM: 57.2%
A498
  activity at 10 µM: 52.2%
CAKI-1
  activity at 10 µM: 85.9%
RXF 393
  activity at 10 µM: -13.3%
TK-10
  activity at 10 µM: 48.6%
MDA-MB-231/ATCC
  activity at 10 µM: -2.41%
BT-549 [4]
  activity at 10 µM: -1.04%
T-47D
  activity at 10 µM: 4.99%
MDA-MB-468
  activity at 10 µM: -63.9%
